According to ChEMBL document CHEMBL5550209, “Hit-to-Lead Optimization of Heterocyclic Carbonyloxycarboximidamides as Selective Antagonists at Human Adenosine A3 Receptor” (J Med Chem, 2024):

Assay: Plasma protein binding in human at 10 uM measured upto 24 hrs by equilibrium dialysis method

- fraction unbound at 24 h, 10 µM: 0.01
SMILES: CN[C@H]1CC[C@@H](c2ccc(Cl)c(Cl)c2)c2ccccc21 [SERTRALINE]
